In patent US11382918B2, “Methods for treating Huntington's Disease” (PTC Therapeutics, Inc., priority 2017, dated 2022):

System: Endogenous Huntingtin Protein (HTT)
Experiment: Endogenous Huntingtin Protein Assay (ELISA-based MSD electrochemiluminescence)
Type: cell-based
Settings: Table 1
Method: Compounds of Formula (I) were tested using the Meso Scale Discovery (MSD) Assay provided in International Application No. PCT/US2016/066042, filed on Dec. 11, 2016 and claiming priority to U.S. Provisional Application 62/265,652 filed on Dec. 10, 2015, published as International Publication No. WO 2017/100726 on Jun. 15, 2017, the entire contents of which are incorporated herein by reference.
The Endogenous Huntingtin Protein assay used in Example 1 was developed using the ELISA-based MSD electrochemiluminescence assay platform.
Endogenous Huntingtin Protein Assay
Meso Scale Discovery (MSD) 96-well or 384-well plates were coated overnight at 4° C. with MW1 (expanded polyglutamine) or MAB2166 monoclonal antibody (for capture) at a concentration of 1 μg/mL in PBS (30 μL per well). Plates were then washed three times with 300 µL wash buffer (0.05% Tween-20 in PBS) and blocked (100 μL blocking buffer; 5% BSA in PBS) for 4-5 hours at room temperature with rotational shaking and then washed three times with wash buffer.
Samples (25 μL) were transferred to the antibody-coated MSD plate and incubated overnight at 4° C. After removal of the lysates, the plate was washed three times with wash buffer, and 25 μL of #5656S (Cell signaling; rabbit monoclonal) secondary antibody (diluted to 0.25 μg/mL in 0.05% Tween-20 in blocking buffer) was added to each well and incubated with shaking for 1 Hour at room temperature. Following incubation with the secondary antibody, the wells were rinsed with wash buffer after which 25 μL of goat anti-rabbit SULFO TAG secondary detection antibody (required aspect of the MSD system) (diluted to 0.25 μg/mL in 0.05% Tween-20 in blocking buffer) was added to each well and incubated with shaking for 1 hour at room temperature. After rinsing three times with wash buffer, 150 μL of read buffer T with surfactant (MSD) were added to each empty well, and the plate was imaged on a SI 6000 imager (MSD) according to manufacturers' instructions provided for 96- or 384-well plates.

SMILES	IC50 [nM]
CCc1nc(C)cn2nc(-c3cc(=O)n4cc(N5CCN(CCCF)CC5)ccc4n3)cc12 [compound 665, 2-(4-ethyl-6-methylpyrazolo[1,5-a]pyrazin-2-yl)-7-[4-(3-fluoropropyl)piperazin-1-yl]-4H-pyrido[1,2-a]pyrimidin-4-one]	3000 to 33000
Cc1cn2nc(-c3cc(=O)n4cc(C5=CCN(C)CC5)ccc4n3)cc2c(C)n1 [compound 350, 2-(4,6-dimethylpyrazolo[1,5-a]pyrazin-2-yl)-7-(1-methyl-1,2,3,6-tetrahydropyridin-4-yl)-4H-pyrido[1,2-a]pyrimidin-4-one]	3000 to 33000
Cc1cc(-c2cc(=O)n3cc(C4CCNCC4)ccc3n2)cc2cn(C)nc12 [compound 739, 2-(2,7-dimethyl-2H-indazol-5-yl)-7-(piperidin-4-yl)-4H-pyrido[1,2-a]pyrimidin-4-one]	500 to 1000
Cc1cn2cc(-c3cc(=O)n4cc(N5CCN(C)CC5)ccc4n3)cc(F)c2n1 [compound 269, 2-(8-fluoro-2-methylimidazo[1,2-a]pyridin-6-yl)-7-(4-methylpiperazin-1-yl)-4H-pyrido[1,2-a]pyrimidin-4-one]	500 to 1000
Cc1cn2cc(-c3cc(=O)n4cc(N5CCN[C@H](C)C5)ccc4n3)cc(C(F)(F)F)c2n1 [compound 734, 7-[(3R)-3-methylpiperazin-1-yl]-2-[2-methyl-8-(trifluoromethyl)imidazo[1,2-a]pyridin-6-yl]-4H-pyrido[1,2-a]pyrimidin-4-one]	3000 to 33000
Cc1cn2nc(-c3cc(=O)n4cc(N5CCN(CCO)CC5)ccc4n3)cc2c(C)n1 [compound 531, 2-(4,6-dimethylpyrazolo[1,5-a]pyrazin-2-yl)-7-[4-(2-hydroxyethyl)piperazin-1-yl]-4H-]	3000 to 33000
Cc1cn2nc(-c3cc(=O)n4cc(N5CCC(NCCO)CC5)cc(C)c4n3)cc2c(C)n1 [compound 609, 2-(4,6-dimethylpyrazolo[1,5-a]pyrazin-2-yl)-7-{4-[(2-hydroxyethyl)amino]piperidin-1-yl}-9-methyl-4H-pyrido[1,2-a]pyrimidin-4-one]	3000 to 33000
Cc1cn2cc(-c3cc(=O)n4cc(N5CCN(C)CC5)ccc4n3)ccc2n1 [compound 114, 2-(2-methylimidazo[1,2-a]pyridin-6-yl)-7-(4-methylpiperazin-1-yl)-4H-pyrido[1,2-a]pyrimidin-4-one]	3000 to 33000
Cc1cn2cc(-c3cc(=O)n4cc(N5CCNCC5)ccc4n3)cc(C(F)(F)F)c2n1 [compound 733, 2-[2-methyl-8-(trifluoromethyl)imidazo[1,2-a]pyridin-6-yl]-7-(piperazin-1-yl)-4H-pyrido[1,2-a]pyrimidin-4-one]	1000 to 3000
O=c1cc(-c2cnc(O)c(F)c2)nc2ccc(N3CCNCC3)cn12 [compound 839, 2-(5-fluoro-6-hydroxypyridin-3-yl)-7-(piperazin-1-yl)-4H-pyrido[1,2-a]pyrimidin-4-one]	3000 to 33000
CCc1nc(C)cn2nc(-c3cc(=O)n4cc(N(C)C5CC(C)(C)NC(C)(C)C5)cc(C)c4n3)cc12 [compound 851, 2-(4-ethyl-6-methylpyrazolo[1,5-a]pyrazin-2-yl)-9-methyl-7-[methyl(2,2,6,6-tetramethylpiperidin-4-yl)amino]-4H-pyrido[1,2-a]pyrimidin-4-one]	3000 to 33000
O=c1cc(-c2ccc3nc(C(F)(F)F)cn3c2)nc2ccc(N3CCNCC3)cn12 [compound 123, 7-(piperazin-1-yl)-2-[2-(trifluoromethyl)imidazo[1,2-a]pyridin-6-yl]-4H-pyrido[1,2-a]pyrimidin-4-one]	3000 to 33000
Cc1cc(-c2cc(=O)n3cc(N4CCNCC4)ccc3n2)cc2cnn(C)c12 [compound 776, 2-(1,7-dimethyl-1H-indazol-5-yl)-7-(piperazin-1-yl)-4H-pyrido[1,2-a]pyrimidin-4-one]	3000 to 33000
CCc1nc(C)cn2nc(-c3cc(=O)n4cc(N5CCN[C@@H](C)C5)cc(C)c4n3)cc12 [compound 787, 2-(4-ethyl-6-methylpyrazolo[1,5-a]pyrazin-2-yl)-9-methyl-7-[(3S)-3-methylpiperazin-1-yl]-4H-pyrido[1,2-a]pyrimidin-4-one]	3000 to 33000
